Paper PMC9790248, “Effects of CYP3A Inhibition, CYP3A Induction, and Gastric Acid Reduction on the Pharmacokinetics of Ripretinib, a Switch Control KIT Tyrosine Kinase Inhibitor” (Clinical Pharmacology in Drug Development, 2022)
Where two headings read alike, the source gives them in different places.

What was measured:
[1] = Pantoprazole (proton pump inhibitor) DDI study, plasma pharmacokinetics; assay type: in vivo, human; conditions: for AUC(0-t) / AUC(0-inf) / Cmax / half-life / Tmax: both sexes, human, plasma; for AUC(0-t) / AUC(0-inf) / Cmax / half-life: po; for AUC(0-t) / AUC(0-inf) / Cmax / half-life / Tmax / CL/F, arithmetic mean (SD) / CL/F, geometric mean (CV%): fasting; for Tmax: read-out: tmax, median (min, max); for Time postdose that mean plasma concentration remained above the LLOQ: LLOQ 2.00 ng/mL
Protocol: All studies were phase 1, fixed‐sequence, open‐label studies in healthy volunteers. One study consisted of two separate cohorts examining DDIs between ripretinib and itraconazole or pantoprazole, respectively; the rifampin study was conducted separately. Studies and cohorts were enrolled independently. Eligible participants were healthy male or female adults between 18 and 55 years of age with a body mass index (BMI) of ≥18.5 and ≤30 kg/m^2. Good health was confirmed by a physician and based on medical evaluation with no significant findings, including medical history, physical examination, laboratory tests, and 12‐lead electrocardiogram (ECG) at screening and day −1. Participants were required to abstain from alcohol, marijuana, grapefruit, Seville oranges, tangelo, star fruit, and grapefruit‐like products 14 days prior to and during the study. Participants with a positive breath test for Helicobacter pylori were excluded from the pantoprazole study.
(§1) Participants were confined to the study center on days 1 through 16. On day 1, participants received an oral dose of ripretinib 50 mg under fasting conditions (Figure 1C). On days 8 through 13, participants received pantoprazole 40 mg once daily. On day 14, participants received pantoprazole 40 mg once daily and ripretinib 50 mg simultaneously under fasting conditions.
Ripretinib and its active metabolite DP‐5439 plasma concentrations were measured using a validated high‐performance liquid chromatography (HPLC) with tandem mass spectrometry (LC‐MS/MS) assay with a lower limit of quantification (LLOQ) of 2.00 ng/mL for both analytes. In this method, the analytes (ripretinib and DP‐5439) and the internal standards (ISs; DCC‐2618‐d5 and DP‐5439‐d5) were released from human plasma samples by protein precipitation. The supernatants were chromatographed using reversed‐phase HPLC with a Betasil® C8 analytical column with deionized water (0.1% formic acid) and 40/60 acetonitrile/acetone (0.1% formic acid) as the mobile phase. Mass spectrometric detection was performed on a triple quadrupole tandem mass spectrometer API 5000 or API 5500 (Applied Biosystems/MDS Sciex, Toronto, Canada) equipped with a turbo ion spray source operated in the positive ionization mode. The source parameters were collision energy 40 eV, collision gas 6 psi, Nebulizer Gas 1, Turbo IonSpray Gas 2, and curtain gas 35 psi. Quantification was obtained by using multiple reaction monitoring mode of the transitions of mass to charge ratio [m/z] 510.3 →417 for DCC‐2618 (ripretinib), m/z 496.2 →403 for DP‐5439, m/z 515.3 →417 for DCC‐2618‐d5, and m/z 501.2 →403 for DP‐5439‐d5.
Plasma concentration–time data were analyzed using noncompartmental methods using Phoenix® WinNonlin® v7.0 (Certara USA Inc., Princeton, New Jersey). Derived PK parameters included area under the concentration–time curve from time 0 to time t (AUC0–t) and area under the concentration–time curve from 0 to infinity (AUC0–∞), maximum observed concentration (Cmax), time of maximum observed concentration (tmax), elimination half‐life (t1/2), apparent systemic clearance, and for DP‐5439, metabolite to parent ratio for AUC0–t, AUC0–∞, and Cmax.
The PK population included all participants who received ≥1 dose ripretinib and had ≥1 nonmissing PK concentration in plasma reported for ripretinib or DP‐5439. The PK evaluable set included all participants in the PK population who had ripretinib PK parameters on both ripretinib dosing days, bioanalytical results for ≥75% of planned analyses, no missed ripretinib doses and ≤2 missed perpetrator (itraconazole, pantoprazole, or rifampin) doses before the second dosing day of ripretinib, and no emesis within 8 hours of ripretinib administration. […]

[2] = Safety assessment (TEAEs), pantoprazole study; assay type: in vivo, human
Protocol: as §1
Relationship to study drug was assessed by the investigator.
Safety data were summarized as n (%).

[3] = Safety assessment (TEAEs), itraconazole study
Protocol: On days 8 through 10, participants received itraconazole 200 mg once daily with a meal or snack. On day 11, participants received ripretinib 50 mg 1 hour after itraconazole 200 mg under fasting conditions. On days 12 through 17, participants received itraconazole 200 mg once daily with a meal or snack. […] Safety was assessed throughout and a follow‐up safety phone call was conducted at day 24 or 7 days after the last dose of study drug if participants withdrew early.
TEAEs were defined as adverse events (AEs) that occurred/worsened during or after administration of any of the study drugs. Relationship to study drug was assessed by the investigator. The safety population included all enrolled participants who received ≥1 dose of ripretinib.
Participant demographics, clinical characteristics, and PK parameters were summarized using descriptive statistics. Safety data were summarized as n (%). […] PK parameters were calculated using Phoenix® WinNonlin® v7.0 or higher (Certara USA Inc.).

[4] = ripretinib 50 mg single oral dose + pantoprazole 40 mg QD, healthy participants (N = 23)
[5] = ripretinib 50 mg single oral dose alone, healthy participants (pantoprazole study, N = 23)
[6] = ripretinib 50 mg with pantoprazole 40 mg QD relative to ripretinib alone
[7] = ripretinib 50 mg with pantoprazole 40 mg QD relative to ripretinib alone, listed as ripretinib
[8] = itraconazole study: ripretinib 50 mg alone and with itraconazole 200 mg QD, safety population N = 20

## CCn1c(=O)c(-c2cc(NC(=O)Nc3ccccc3)c(F)cc2Br)cc2cnc(NC)cc21 [Ripretinib]
[1]; 50 mg, ripretinib 50 mg single oral dose alone, healthy participants (pantoprazole study, N = 23), read-out: AUC0–t, arithmetic mean (SD)
  AUC(0-t): 3870 ng·h/mL
[1]; 50 mg, ripretinib 50 mg single oral dose alone, healthy participants (pantoprazole study, N = 23), read-out: AUC0–t, geometric mean (CV%)
  AUC(0-t): 3610 ng·h/mL
[1]; 50 mg, ripretinib 50 mg single oral dose alone, healthy participants (pantoprazole study, N = 23), read-out: AUC0–∞, arithmetic mean (SD)
  AUC(0-inf): 3950 ng·h/mL
[1]; 50 mg, ripretinib 50 mg single oral dose alone, healthy participants (pantoprazole study, N = 23), read-out: AUC0–∞, geometric mean (CV%)
  AUC(0-inf): 3690 ng·h/mL
[1]; 50 mg, ripretinib 50 mg single oral dose alone, healthy participants (pantoprazole study, N = 23), read-out: Cmax, arithmetic mean (SD)
  Cmax: 301 ng/mL
[1]; 50 mg, ripretinib 50 mg single oral dose alone, healthy participants (pantoprazole study, N = 23), read-out: Cmax, geometric mean (CV%)
  Cmax: 289 ng/mL
[1]; 50 mg, ripretinib 50 mg single oral dose alone, healthy participants (pantoprazole study, N = 23), read-out: t1/2, arithmetic mean (SD) (converted)
  half-life: 14 h
[1]; 50 mg, ripretinib 50 mg single oral dose alone, healthy participants (pantoprazole study, N = 23), read-out: t1/2, geometric mean (CV%) (converted)
  half-life: 13 h
[1]; ripretinib 50 mg single oral dose + pantoprazole 40 mg QD, healthy participants (N = 23), read-out: AUC0–t, arithmetic mean (SD)
  AUC(0-t): 4220 ng·h/mL
[1]; ripretinib 50 mg single oral dose + pantoprazole 40 mg QD, healthy participants (N = 23), read-out: AUC0–t, geometric mean (CV%)
  AUC(0-t): 3940 ng·h/mL
[1]; ripretinib 50 mg single oral dose + pantoprazole 40 mg QD, healthy participants (N = 23), read-out: AUC0–∞, arithmetic mean (SD)
  AUC(0-inf): 4310 ng·h/mL
[1]; ripretinib 50 mg single oral dose + pantoprazole 40 mg QD, healthy participants (N = 23), read-out: AUC0–∞, geometric mean (CV%)
  AUC(0-inf): 4030 ng·h/mL
[1]; ripretinib 50 mg single oral dose + pantoprazole 40 mg QD, healthy participants (N = 23), read-out: Cmax, arithmetic mean (SD)
  Cmax: 319 ng/mL
[1]; ripretinib 50 mg single oral dose + pantoprazole 40 mg QD, healthy participants (N = 23), read-out: Cmax, geometric mean (CV%)
  Cmax: 298 ng/mL
[1]; ripretinib 50 mg single oral dose + pantoprazole 40 mg QD, healthy participants (N = 23), read-out: t1/2, arithmetic mean (SD) (converted)
  half-life: 14 h
[1]; ripretinib 50 mg single oral dose + pantoprazole 40 mg QD, healthy participants (N = 23), read-out: t1/2, geometric mean (CV%) (converted)
  half-life: 14 h
[1]; [4]
  Tmax: 4 h
  CL/F, arithmetic mean (SD): 13 (5) L/h
  CL/F, geometric mean (CV%): 12 (38) L/h
[1]; [5]
  Tmax: 4 h
  CL/F, arithmetic mean (SD): 14 (5) L/h
  CL/F, geometric mean (CV%): 14 (38) L/h
[1]; ripretinib 50 mg + pantoprazole 40 mg QD
  Effect of pantoprazole on exposure / pharmacokinetics: no effect
[1]; ripretinib 50 mg alone (pantoprazole study)
  Time postdose that mean plasma concentration remained above the LLOQ: < 96 h
[1]; [6]
  Geometric LS mean ratio of AUC0–t: 109%
  Geometric LS mean ratio of AUC0–∞ (90% CI): 109 (98–122) %
  Geometric LS mean ratio of Cmax (90% CI): 103 (91–117) %
[1]; [7]
  Geometric LS mean ratio of AUC0–∞ (90% CI): 109%
  Geometric LS mean ratio of Cmax (90% CI): 103%
[1]; ripretinib 50 mg with pantoprazole
  Time postdose that mean plasma concentration remained above the LLOQ: < 96 h
[2]; human, in vivo, 28 days
  Number of TEAEs attributed to study drug: 42
  Participants with TEAEs attributed to study drug per the investigator: 19 (76%) n (%)
  Total number of TEAEs: 63
[2]; pantoprazole study, N = 25
  Deaths and serious AEs: No deaths occurred and no participants experienced SAEs
[3]; itraconazole study, N = 20
  Deaths and serious AEs: No deaths occurred and no participants experienced serious AEs
  Number of TEAEs attributed to study drug: 36
  Participants with TEAEs attributed to study drug per the investigator: 13 (65%) n (%)
  Total number of TEAEs: 44
[3]; [8]
  Participants reporting any TEAE: 14 (70.0) n (%)
  TEAE: ALT increase: 1 (5.0) n (%)
  TEAE: AST increase: 0 n (%)
  TEAE: Abdominal discomfort: 0 n (%)
  TEAE: Abdominal pain: 3 (15.0) n (%)
  TEAE: Abdominal pain lower: 1 (5.0) n (%)
  TEAE: Amylase increase: 4 (20.0) n (%)
  TEAE: Constipation: 1 (5.0) n (%)
  TEAE: Diarrhea: 4 (20.0) n (%)
  TEAE: Fatigue: 1 (5.0) n (%)
  TEAE: Headache: 2 (10.0) n (%)
  TEAE: Lipase increase: 5 (25.0) n (%)
  TEAE: Nausea: 2 (10.0) n (%)
  TEAE: Vomiting: 1 (5.0) n (%)
[3]; itraconazole study: ripretinib 50 mg alone and with itraconazole 200 mg QD, safety population N = 20, listed as ripretinib
  Participants reporting any TEAE: 14 (70%) n (%)
